What was measured:
[1] = test system: P 388 leukemia; set-up: species or system mice; conditions: mouse, in vivo
[2] = test system: L1210 cells; assay: cells; format: cell-based; conditions: Mus musculus, L1210, 48 h, read-out: IC50 (concentration which 50% inhibits the proliferation of the control cells)

Row | Structure (SMILES) | SURVIVORS 30 days [1] | SURVIVORS 60 days [1] | T/C % (mean survival time test group over untreated control group) [1] | IC50 [2]
1 | CC[C@]1(O)C[C@@H]2CN(CCc3c([nH]c4ccccc34)[C@@](C(=O)OC)(c3cc4c(cc3OC)N(C)[C@H]3[C@@](O)(C(=O)OC)[C@H](OC(C)=O)[C@]5(CC)C=CCN6CC[C@]43[C@@H]65)C2)C1 [Vinblastine, vinblastine] | 1/6 | 1/6 | 245% | 2.3 ± 0.5 nM
2 | CC[C@]1(O)C[C@H]2CN(CCc3c([nH]c4ccccc34)[C@@](C(=O)OC)(c3cc4c(cc3OC)N(C=O)[C@H]3[C@@](O)(C(=O)OC)[C@H](OC(C)=O)[C@]5(CC)C=CCN6CC[C@]43[C@@H]65)C2)C1 [Vincristine, vincristine] | 0/6 | 0/6 | 192% | 4.2 ± 0.7 nM
